Counter-ions that a name gives are not always drawn. Like-named read-outs stand apart in the source and are kept apart here.
Legend:
[1] = Maximum estimated dietary exposure to media ingredients per 100 g serving; conditions: assumption of complete transfer of media components to the finished product on a wt/wt basis
[2] = Risk categorization of cell culture media ingredients
Source text: Category 1: These cell culture media components are food ingredients/additives that are GRAS or permitted by federal regulation without limitation on use. Exemplary compounds in this category include innocuous ingredients such as sugars, pH buffers, water soluble vitamins, and common antioxidants such as tocopherols.
Category 2: These cell culture media components are common dietary nutrients and are anticipated to have GRAS status for food use or be permitted by regulation for addition to food. Examples of such compounds include most of the inorganic salts and macronutrients that are present within the cell culture media. […] Majority of nutrients present within the poultry cell-based meat may be readily measured using common validated methods for food composition testing. Batch analyses of multiple lots of the finished product may be obtained to validate the above assumptions. In some instances, consideration of established safe levels (e.g., ADI, UL) derived from a relevant authoritative body (e.g., U.S. FDA, EFSA, JECFA, FSANZ, U.S. EPA) may be leveraged to support safety. If comparisons of anticipated dietary intakes relative to an authoritative reference intake value is used, consideration of additive intakes from all dietary sources may be considered. In the absence of an authoritative reference intake value, published NOAELs from animal toxicology studies may be used to evaluate safety using standard scientific procedures for food safety evaluation. A margin of exposure (MoE) of 100-fold or greater between the NOAEL and estimated dietary intakes from food exposures is typically considered adequate to support safety. in situations where the MoE is <100-fold, additional measures for further reduction of the media component may be necessary, or further characterization of intraspecies/interspecies differences in metabolism may be necessary. These situations also require careful consideration of the regulatory status on a case-by basis (e.g., premarket approval as a food additive or GRAS evaluation required).
For example, situations where the compound is not detectable in finished product or is present at equivalent levels in comparator foods, compounds that are thermo-labile and will be digested during cooking, and/or compounds that are expected to be digested to innocuous compounds following ingestion. Examples of compounds meeting the aforementioned conditions would include recombinant growth factors and serum components. For Category 3 substances a final consideration in the safety assessment process may involve hazard characterization of the potential for a substance to produce toxic biological effects outside of the endpoints measured in a sub-chronic rat toxicity study. Substances with biological activity may require additional hazard characterization related to reproductive and developmental toxicity, or immunotoxicity. Considerations for allergenicity, biological effects in humans (e.g., effects on blood pressure), and synergistic effects with other media components also may be evaluated. […] Examples of category 3 components include recombinant proteins and animal serum.

[3] = cited from earlier work; for Safe Reference Level for Human Dietary Intake: Iron UL: as iron
[4] = test system: primary chicken myoblasts; experiment: Fusion index of primary chicken myoblasts (MyHC immunostaining); assay type: cell-based; conditions: primary chicken myoblasts, proliferation medium, ionophore 2 uM plus ERKi 1 uM, 48 hours
Method: Chicken primary derived myoblasts were used as a model to evaluate the efficiency of SCH772984 as the ERKi, compared to conventional differentiation medium (DM) for the purpose of producing muscle (meat) in tissue culture conditions. Chicken myoblasts were isolated from chicken embryos and expanded in proliferation medium. When sufficient cell numbers were acquired, cells were seeded on tissue culture plates and allowed to adhere for 24 hours. Then medium was changed to either PM supplemented with ERKi or DM. At 24-hours post treatment, the cells that received ERKi were replenished with fresh PM (without the addition of more ERKi), and DM treated cells were replenished with fresh DM. Media was replaced daily over a period of 72 hours.
Evaluation of muscle fiber formation was achieved by fixing the cells and staining for expression of Myosin Heavy Chain (FIG. 9A). […] Yet, treatment with conventional DM only began to form fibers beginning at 72-hours post treatment. A fusion index was quantified at 72 hours post treatment (FIG. 9B), in which the percentage of total nuclei present in a myotube (MyHC positive cell with 2 or more nuclei).
Primary chicken myoblast isolation and treatment: chicken myoblasts were isolated from broiler chicken embryos at day 18 from breast and leg muscles by using Trypsin B. Following tissue dissociation, the cell suspension was grown for 3-4 days on 10% Matrigel coated plates. At the first passage, the cells were lifted and pre-plated twice for 30 minutes to enrich for myoblasts and reduce the number of fibroblasts. Then cells were seeded at 8,000/well of optical-96 well plates in proliferation medium. 24 hours after plating, media was aspirated and replaced with the indicated treatment conditions in proliferation media or differentiation media (as indicated). After 24 hours with treatment, the media was aspirated and all wells were replenished with fresh proliferation media or differentiation media without any treatment. This was repeated daily. Cells were fixed at 48 hours after treatment. Compounds were purchased from Cayman Chemicals.
Immunofluorescent staining: Cells were fixed with ice cold 4% PFA in PBS for 10 minutes, permeabilized with 0.5% Triton X-100 in PBS for 6 minutes, and blocked in PBS with 0.025% tween, 10% normal horse serum and 10% normal goat serum for 1 hour at room temperature. Primary antibody incubation was done in blocking buffer overnight at 4 degrees, with the following antibodies: Myosin Heavy Chain (MyHC, MF20, DSHB hybridoma supernatant 1:10, alpha-actinin (SIGMA A7811). Cells were washed 3 times in PBS with 0.025% tween and then incubated with appropriate secondary antibodies in PBS 1 hour. Nuclei were labeled with DAPI (SIGMA D9542, 5 ug/ml). All fusion indexes and imaging analysis were performed on at least 1000 per technical repeat.

[5] = cell culture media ingredient used during meat production
[6] = human dietary intake, niacinamide and magnesium sulfate: supplements

Q: Which results are given for CC(=O)Oc1c(C)c(C)c2c(c1C)CCC(C)(CCCC(C)CCCC(C)CCCC(C)C)O2 (racemic) [DL-ALPHA-TOCOPHEROL ACETATE]?
A: Maximum Estimated Exposure per 100 g serving [1]: 8 mg; Risk Assessment Category [2, 5]: 1; Safe Reference Level for Human Dietary Intake: UL (Tolerable Upper Limit) ([3]; human dietary intake): UL = 1000 mg/d

Q: What does the source list for [Ca+2].[Cl-].[Cl-] [CALCIUM CHLORIDE (ANHY)]?
A: Maximum Estimated Exposure per 100 g serving [1]: 760 mg; Risk Assessment Category [2, 5]: 1; Safe Reference Level for Human Dietary Intake (kind of level not given) ([3]; human dietary intake): 1 to 3 g/day

Q: Which “Maximum Estimated Exposure per 100 g serving” value [1] does the source give for Cc1c(C)c2c(c(C)c1O)CC[C@@](C)(CCC[C@H](C)CCC[C@H](C)CCCC(C)C)O2 [D-ALPHA-TOCOPHEROL] here?
A: The value was 1.6 mg.

Q: What about the “Risk Assessment Category” value [2, 5] of the same molecule?
A: The value was 1.

Q: And the “Safe Reference Level for Human Dietary Intake: UL (Tolerable Upper Limit)” value (“Safe Reference Level … (Tolerable Upper Limit)” below) ([3]; human dietary intake)?
A: Its value is “UL = 1000 mg/d”.

Q: What does the source list for O.O.O.O.O.O.O.O=S(=O)([O-])[O-].[Fe+2] [FERROUS SULFATE-7H2O]?
A: Maximum Estimated Exposure per 100 g serving [1]: 2.5 mg; Risk Assessment Category [2]: 2; Safe Reference Level for Human Dietary Intake: Iron UL ([3]; human dietary intake): Iron UL = 40 to 45 mg

Q: Which “Maximum Estimated Exposure per 100 g serving” value [1] does the source give for CCCCC/C=C\C/C=C\CCCCCCCC(=O)O [LINOLEIC ACID] here?
A: The value was 1 mg.

Q: And the “Risk Assessment Category” value [2]?
A: The value was 2.

Q: What about the “Safe Reference Level for Human Dietary Intake: AI (Adequate Intake)” value ([3]; human dietary intake) of the same molecule?
A: The value was “AI = 7 to 12 g/d”.

Q: What does the source list for [Cl-].[Cl-].[Mg+2] [MAGNESIUM CHLORIDE (ANHY)]?
A: Maximum Estimated Exposure per 100 g serving [1]: 170 mg; Risk Assessment Category [2, 5]: 1; Safe Reference Level for Human Dietary Intake (kind of level not given) ([3]; human dietary intake): 65 to 350 mg

Q: Which “Maximum Estimated Exposure per 100 g serving” value [1] does the source give for O=S(=O)([O-])[O-].[Mg+2] [MAGNESIUM SULFATE (ANHY)] here?
A: Its value is 493 mg.

Q: What about the “Risk Assessment Category” value [2, 5] of the same molecule?
A: Its value is 1.

Q: And the “Safe Reference Level … (Tolerable Upper Limit)” value [3, 6]?
A: Its value is “UL = 65 to 350 mg”.

Q: For O.O=S(=O)([O-])[O-].[Mn+2] [MANGANESE SULFATE H2O], which “Maximum Estimated Exposure per 100 g serving” value [1] is on record?
A: Its value is 0.003 mg.

Q: What about the “Risk Assessment Category” value [2, 5] of the same molecule?
A: The value was 1.

Q: What about the “Safe Reference Level for Human Dietary Intake (kind of level not given)” value (“Safe Reference Level … (kind of level not given)” below) ([3]; human dietary intake) of the same molecule?
A: Its value is 0.002 to 0.011 g/day.

Q: With NC(=O)c1cccnc1 [NIACINAMIDE (NICOTINAMIDE), NIACINAMIDE] as the molecule, how does the “Maximum Estimated Exposure per 100 g serving” value [1] read?
A: Its value is 25 mg.

Q: And the “Risk Assessment Category” value [2]?
A: Its value is 1.

Q: And the “Safe Reference Level … (Tolerable Upper Limit)” value [3, 6]?
A: Its value is “UL = 10 to 35 mg”.

Q: For [Cl-].[K+] [POTASSIUM CHLORIDE], which “Maximum Estimated Exposure per 100 g serving” value [1] is on record?
A: The value was 4000 mg.

Q: What about the “Risk Assessment Category” value [2, 5] of the same molecule?
A: Its value is 1.

Q: And the “Safe Reference Level for Human Dietary Intake (UL) given as symbol” value ([3]; human dietary intake)?
A: The value was “UL = NS”.

Q: Which “Safe Reference Level … (kind of level not given)” value ([3]; human dietary intake) does the source give for [Cl-].[Na+] [SODIUM CHLORIDE] here?
A: Its value is 2.3 g/day.

Q: Which “Maximum Estimated Exposure per 100 g serving” value [1] does the source give for CC(=O)C(=O)[O-].[Na+] [SODIUM PYRUVATE] here?
A: Its value is 1000 mg.

Q: What about the “Risk Assessment Category” value [2, 5] of the same molecule?
A: Its value is 3.

Q: What about the “Safe Reference Level for Human Dietary Intake, in words” value ([3]; dietary intakes within the range of OSL values reported in human investigations) of the same molecule?
A: The value was “Dietary intakes within”.

Q: With Cc1ncc(C[n+]2csc(CCO)c2C)c(N)n1 [THIAMINE-HCL] as the molecule, how does the “Maximum Estimated Exposure per 100 g serving” value [1] read?
A: The value was 18 mg.

Q: What about the “Risk Assessment Category” value [2] of the same molecule?
A: The value was 1.

Q: And the “Safe Reference Level for Human Dietary Intake (UL) given as symbol” value ([3]; human dietary intake)?
A: The value was “UL = NS”.

Q: What does the source list for CCCCCCCC/C=C\CCCCCCCC(=O)OCCOCC(OCCO)C1OCC(OCCO)C1OCCO (centres unmarked) [TWEEN 80]?
A: Maximum Estimated Exposure per 100 g serving [1]: 4 mg; Risk Assessment Category [2, 5]: 2; Safe Reference Level for Human Dietary Intake: ADI (Acceptable Daily Intake) ([3]; human dietary intake): ADI = 10 mg/kg bw/d

Q: Which “Maximum Estimated Exposure per 100 g serving” value [1] does the source give for C=C1CC[C@H](O)C/C1=C/C=C1\CCC[C@]2(C)[C@@H]([C@H](C)/C=C/[C@H](C)C(C)C)CC[C@@H]12 [VITAMIN D2 (ERGOCALCIFEROL), ERGOCALCIFEROL] here?
A: The value was 0.024 mg.

Q: And the “Risk Assessment Category” value [2]?
A: The value was 1.

Q: And the “Safe Reference Level … (Tolerable Upper Limit)” value ([3]; human dietary intake)?
A: Its value is “UL = 100 ug/d”.

Q: With O.O.O.O.O.O.O.O=S(=O)([O-])[O-].[Zn+2] [ZINC SULFATE-7H20] as the molecule, how does the “Maximum Estimated Exposure per 100 g serving” value [1] read?
A: The value was 15 mg.

Q: What about the “Risk Assessment Category” value [2] of the same molecule?
A: The value was 1.

Q: And the “Safe Reference Level … (Tolerable Upper Limit)” value ([3]; human dietary intake)?
A: Its value is “UL = 5 to 40 mg/day”.

Q: Which Fusion index [4] does the source give for CCOC(=O)CCCCCCCCCCCN(C)C(=O)CO[C@H](C)[C@@H](C)OCC(=O)N(C)CCCCCCCCCCCC(=O)OCC [calcium ionophore I] here?
A: The Fusion index was 89%.

Q: Which Fusion index [4] does the source give for C[C@H](CCC(=O)O)C[C@H](C)C[C@H](C)C(=O)/C=C(\O)[C@H](C)C[C@H](C)C/C=C/[C@@H](C)[C@@H](O)[C@@H](C)[C@@H](O)C[C@@H]1CC[C@@](C)([C@H]2CC[C@@](C)([C@@H](C)O)O2)O1 [ionomycin] here?
A: The Fusion index was 89%.

Q: What does the source list for CALCIUM D-PANTOTHENATE?
A: Maximum Estimated Exposure per 100 g serving [1]: 100 mg; Safe Reference Level for Human Dietary Intake (UL) given as symbol ([3]; human dietary intake): UL = NS

Q: Which “Maximum Estimated Exposure per 100 g serving” value [1] does the source give for COPPER SULFATE-PENTAHYDRATE here?
A: Its value is 3 mg.

Q: What about the “Safe Reference Level … (kind of level not given)” value ([3]; human dietary intake) of the same molecule?
A: Its value is 1 to 10 mg.

Q: With FERRIC CITRATE as the molecule, how does the “Safe Reference Level for Human Dietary Intake: Iron UL” value ([3]; human dietary intake) read?
A: The value was “Iron UL = 40 to 45 mg”.

— patent US20240074473A1, “METHOD FOR INDUCING HYPERTROPHIC MUSCLE FIBERS FOR INDUSTRIAL MEAT PRODUCTION” (Yeda Research and Development Co. Ltd., priority 2021, published 2024)
